Where a name gives a salt, the structure may show the parent alone.
Legend:
Assay in all cases: Antibacterial activity (MIC), conventional two-fold dilution method
Type in all cases: cell-based
P. auruginosa E-2 = details: 10^6 CFU/ml, Medium N, 35° C., 18 to 20 hours
Protocol: (§1) The test was carried out in the following manner: 10^6 CFU/ml of a bacterium to be tested was inoculated on a Medium N for disc susceptibility test (manufactured by Nissui Pharmaceutical Co., Ltd.), and cultivated at 35° C. for 18 to 20 hours.

E. faecalis W-73 = details: Enterococcus faecalis, W73, 10^6 CFU/ml, Medium N, 35° C., 18 to 20 hours
Protocol: as §1

M. morganii 1510/S-1 = details: Morganella morganii, 1510/S1, 10^6 CFU/ml, Medium N, 35° C., 18 to 20 hours
Protocol: as §1

R. cloacae G-0008 = details: 10^6 CFU/ml, Medium N, 35° C., 18 to 20 hours
Protocol: as §1

C. freundii GN346/16 = details: Citrobacter freundii, 10^6 CFU/ml, Medium N, 35° C., 18 to 20 hours
Protocol: as §1

S. epidermidis ATCC14990 = details: Staphylococcus epidermidis, 10^6 CFU/ml, Medium N, 35° C., 18 to 20 hours
Protocol: as §1

E. coli NIHJ JC-2 = details: Escherichia coli, NIHJJC2, 10^6 CFU/ml, Medium N, 35° C., 18 to 20 hours
Protocol: as §1

K. pneumoniae PC1602 = details: Klebsiella pneumoniae, 10^6 CFU/ml, Medium N, 35° C., 18 to 20 hours
Protocol: as §1

S. aureus 209P JC-1 = details: Staphylococcus aureus, 10^6 CFU/ml, Medium N, 35° C., 18 to 20 hours
Protocol: as §1

P. vulgaris GN76 = details: Proteus vulgaris, 10^6 CFU/ml, Medium N, 35° C., 18 to 20 hours
Protocol: as §1

S. marcescens No.1 = details: Serratia marcescens, 10^6 CFU/ml, Medium N, 35° C., 18 to 20 hours
Protocol: as §1

Structure (SMILES) | MIC (P. auruginosa E-2) [µg/mL] | MIC (E. faecalis W-73) [µg/mL] | MIC (M. morganii 1510/S-1) [µg/mL] | MIC (R. cloacae G-0008) [µg/mL] | MIC (C. freundii GN346/16) [µg/mL] | MIC (S. epidermidis ATCC14990) [µg/mL] | MIC (E. coli NIHJ JC-2) [µg/mL] | MIC (K. pneumoniae PC1602) [µg/mL] | MIC (S. aureus 209P JC-1) [µg/mL] | MIC (P. vulgaris GN76) [µg/mL] | MIC (S. marcescens No.1) [µg/mL]
NC(=O)c1csc2c[n+](CC=CC3=C(C(=O)[O-])N4C(=O)C(NC(=O)C(=NOCF)c5nsc(N)n5)C4SC3)cn12 [Example 3, (6R, 7R)-7-[(Z)-2-(5-amino-1,2,4-thiadiazol-3-yl)-2-fluoromethoxyiminoacetamido]-3-[3-(3-carbamoylimidazo [5,1-b]thiazolium-6-yl)-1-propenyl]-3-cephem-4-carboxylate (internal salt)] | 12.5 | 12.5 | < 0.025 | 0.05 | 0.05 | 0.2 | 0.05 | 0.05 | 0.2 | 0.1 | 0.05
Nc1nc(C(=NOCF)C(=O)NC2C(=O)N3C(C(=O)[O-])=C(C=CC[n+]4cc5sccn5c4)CSC23)ns1 [Example 1, (6R, 7R)-7-[(Z)-2-(5-amino-1,2,4-thiadiazol-3-yl)-2-fluoromethoxyiminoacetamido]-3-[3-(imidazo[5,1-b]-thiazolium-6-yl)-1-propenyl]-3-cephem-4-carboxylate(internal salt)] | 12.5 | 12.5 | < 0.025 | 0.05 | 0.05 | 0.1 | < 0.025 | 0.05 | 0.2 | 0.1 | 0.05
Cc1csc2c[n+](CC=CC3=C(C(=O)[O-])N4C(=O)C(NC(=O)C(=NOCF)c5nsc(N)n5)C4SC3)cn12 [Example 2, (6R, 7R)-7-[(Z)-2-(5-amino-1,2,4-thiadiazol-3-yl)-2-fluoromethoxyiminoacetamido]-3-[3-(3-methylimidazo[5,1-b]thiazolium-6-yl)-1-propenyl]-3-cephem-4-carboxylate (internal salt)] | 25 | 12.5 | < 0.025 | 0.05 | 0.05 | 0.2 | 0.05 | 0.05 | 0.2 | 0.1 | 0.05
Nc1nc(C(=NOCF)C(=O)NC2C(=O)N3C(C(=O)[O-])=C(C=CC[n+]4cc5sccn5c4CNC=O)CSC23)ns1 [Example 4, (6R, 7R)-7-[(Z)-2-(5-amino-1,2,4-thiadiazol-3-yl)-2-fluoromethoxyiminoacetamido]-3-[3-(5-formylaminomethylimidazo[5,1-b]thiazolium-6-yl]-1-propenyl]-3-cephem-4-carboxylate (internal salt)] | 12.5 | 12.5 | < 0.025 | 0.05 | < 0.025 | 0.2 | < 0.025 | < 0.025 | 0.39 | 0.1 | 0.05

From patent publication US5661144A, “Cephem derivatives with 3-substituted bis heterocycles” (Meiji Seika Kabushiki Kaisha, priority 1994, dated 1997)
